Reference: ChEMBL document CHEMBL1201862, “PubChem BioAssay data set” (2004)
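Method: 48-hour compound exposure of cells in 96-well plates, five concentrations, linear interpolation of endpoints. GI50 is the concentration that inhibits growth by half.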 Calls of active or inactive are those of the source. Cut-off read from the data, not from the text of the source: active = GI50 up to about 1.1 µM and inactive = higher.

What was measured:
Assay in all cases: NCI-60 cell line screen, 48 h
KM12 = system: KM12
MDA-MB-231 = system: MDA-MB-231
RXF 393 = system: RXF 393
SR = system: SR
UO-31 = system: UO-31
ACHN = system: ACHN
HOP-92 = system: HOP-92
NCI-H23 = system: NCI-H23
RPMI-8226 = system: RPMI-8226
SK-MEL-28 = system: SK-MEL-28
TK-10 = system: TK-10
DU-145 = system: DU-145
A498 = system: A498
IGROV-1 = system: IGROV-1
NCI-H522 = system: NCI-H522
MOLT-4 = system: MOLT-4
HT-29 = system: HT-29
K562 = system: K562
LOX IMVI = system: LOX IMVI
MDA-N = system: MDA-N

Measured: GI50

CN(c1cn(C2CC[C@@H](CO)O2)c(=O)[nH]c1=O)C1CCCCC1 (stereo not given in full)
inactive: KM12 > 100 µM | MDA-MB-231 > 100 µM | RXF 393 > 100 µM | SR > 100 µM | UO-31 > 100 µM | ACHN > 100 µM | HOP-92 > 100 µM | NCI-H23 > 100 µM | RPMI-8226 > 100 µM | SK-MEL-28 > 100 µM | TK-10 > 100 µM | DU-145 > 100 µM | A498 > 100 µM | IGROV-1 > 100 µM | NCI-H522 > 100 µM | MOLT-4 > 100 µM | HT-29 > 100 µM | K562 > 100 µM | LOX IMVI > 100 µM | MDA-N > 100 µM
